According to DBAASP:
In brackets after ≈: the same amount, converted by molar mass.

Key:
Assay in all cases: ≥ marks a high value that may be exact or a test limit, other limits are often not marked, values filed in µg/mL are converted to µM
[1] = system: Staphylococcus aureus CGMCC 1.8721
[2] = system: Klebsiella pneumoniae CGMCC 1.1736
[3] = system: Bacillus subtilis CGMCC 1.3376
[4] = system: Escherichia coli CGMCC 1.8732
[5] = system: Pseudomonas aeruginosa CGMCC 1.2421
[6] = system: Staphylococcus epidermidis CGMCC 1.4260
[7] = system: Escherichia coli ATCC 25922
[8] = system: Bacillus subtilis ATCC 23857
[9] = system: Bacillus cereus ATCC 14579
Fusarium oxysporum = system: Fusarium oxysporum
Trichoderma asperellum = system: Trichoderma asperellum
[10] = system: Staphylococcus aureus ATCC 25923
[11] = system: Cryptococcus neoformans ATCC 28957
Ramulariopsis gossypii = system: Ramulariopsis gossypii
Rhizoctonia solani = system: Rhizoctonia solani
Fusarium solani = system: Fusarium solani
[12] = system: Xanthomonas campestris pv. citri
[13] = system: Pseudomonas aeruginosa ATCC 27853
[14] = system: Candida albicans ATCC 90028
[15] = system: Pseudomonas syringae pv. tabaci
[16] = system: Pectobacterium carotovorum
[17] = system: Fusarium oxysporum f.sp. vasinfectum
Candida parapsilosis = system: Candida parapsilosis
[18] = system: Pseudomonas aeruginosa PAO1
[19] = system: Zymomonas mobilis ATCC 10988
Bacillus subtilis DELTA = system: Bacillus subtilis DELTA
[20] = system: Escherichia coli DH5alpha
[21] = system: Streptococcus sobrinus ATCC 6715
[22] = system: Streptococcus mutans UA159
[23] = system: Streptococcus sanguinis ATCC 10556
[24] = system: Staphylococcus aureus 209P
Escherichia coli C600 = system: Escherichia coli C600

CC[C@H](C)[C@H](NC(=O)[C@H](C)N)C(=O)NCC(=O)N[C@@H](CO)C(=O)N[C@H](C(=O)N[C@@H](CC(C)C)C(=O)NCC(=O)N[C@@H](CCCN=C(N)N)C(=O)N[C@@H](CC(C)C)C(=O)N[C@@H](C)C(=O)N[C@@H](CCCCN)C(=O)NCC(=O)N[C@@H](CC(C)C)C(=O)N1CCC[C@H]1C(=O)N[C@H](C(=O)N[C@@H](CC(C)C)C(=O)N[C@H](C(=O)N[C@@H](CO)C(=O)N[C@@H](Cc1c[nH]c2ccccc12)C(=O)N[C@H](C(=O)N[C@@H](CCCCN)C(=O)N[C@@H](CC(N)=O)C(=O)N[C@@H](CCCN=C(N)N)C(N)=O)[C@@H](C)CC)[C@@H](C)CC)[C@@H](C)O)[C@@H](C)CC [AIGSILGRLAKGLPTLISWIKNR]
MIC [1]: 3.13 µM (≈ 7.75 µg/mL)
MIC [2]: 12.5 µM (≈ 31 µg/mL)
MIC [3]: 3.13 µM (≈ 7.75 µg/mL)
MIC [4]: 12.5 µM (≈ 31 µg/mL)
MIC [5]: 12.5 µM (≈ 31 µg/mL)
MIC [6]: 3.13 µM (≈ 7.75 µg/mL)

CC[C@H](C)[C@H](NC(=O)[C@@H](NC(=O)[C@H](Cc1c[nH]c2ccccc12)NC(=O)[C@H](CCCCN)NC(=O)[C@H](Cc1ccccc1)NC(=O)[C@@H](NC(=O)[C@H](CCCCN)NC(=O)[C@@H](NC(=O)[C@H](CC(C)C)NC(=O)[C@H](CCCCN)NC(=O)[C@H](CCCN=C(N)N)NC(=O)CNC(=O)[C@H](CC(C)C)NC(=O)[C@H](CCCCN)NC(=O)[C@H](Cc1ccccc1)NC(=O)CN)C(C)C)C(C)C)[C@@H](C)CC)C(N)=O [GFKLGRKLVKVFKWII]
MIC [7]: 0.5 µM (≈ 0.966 µg/mL)
MIC [8]: 1 µM (≈ 1.93 µg/mL)
MIC [9]: 1 µM (≈ 1.93 µg/mL)
MIC (Fusarium oxysporum): 0.5 µM (≈ 0.966 µg/mL)
MIC (Trichoderma asperellum): 1 µM (≈ 1.93 µg/mL)
MIC [10]: 0.83 µM (≈ 1.6 µg/mL)
MIC [11]: 1 µM (≈ 1.93 µg/mL)
MIC (Ramulariopsis gossypii): 0.5 µM (≈ 0.966 µg/mL)
MIC (Rhizoctonia solani): 1 µM (≈ 1.93 µg/mL)
MIC (Fusarium solani): 0.5 µM (≈ 0.966 µg/mL)
MIC [12]: 1 µM (≈ 1.93 µg/mL)
MIC [13]: 3.33 µM (≈ 6.43 µg/mL)
MIC [14]: 1 µM (≈ 1.93 µg/mL)
MIC [15]: 1 µM (≈ 1.93 µg/mL)
MIC [16]: 0.5 µM (≈ 0.966 µg/mL)
MIC [17]: 0.5 µM (≈ 0.966 µg/mL)

CC[C@H](C)[C@H](NC(=O)[C@H](CCCCN)NC(=O)CN)C(=O)N[C@@H](CC(C)C)C(=O)N[C@@H](CCCCN)C(=O)N[C@@H](Cc1ccc(O)cc1)C(=O)N[C@@H](CC(C)C)C(=O)N[C@@H](CC(C)C)C(=O)N[C@@H](Cc1ccc(O)cc1)C(=O)N[C@@H](CC(C)C)C(=O)N[C@@H](CC(C)C)C(=O)N[C@@H](CCCN=C(N)N)C(=O)N[C@@H](CCCCN)C(=O)N[C@@H](Cc1ccc(O)cc1)C(=O)N[C@@H](C)C(=O)N[C@@H](CC(N)=O)C(=O)N[C@@H](CC(C)C)C(=O)N[C@H](C(=O)N[C@H](C(=O)N[C@@H](CCCN=C(N)N)C(N)=O)[C@@H](C)CC)[C@@H](C)CC [GKILKYLLYLLRKYANLIIR]
MIC [7]: 10.7 µM (≈ 26.3 µg/mL)
MIC [8]: 4 µM (≈ 9.86 µg/mL)
MIC [9]: 13.3 µM (≈ 32.8 µg/mL)
MIC (Fusarium oxysporum): 2 µM (≈ 4.93 µg/mL)
MIC (Trichoderma asperellum): 1 µM (≈ 2.46 µg/mL)
MIC [10]: 8 µM (≈ 19.7 µg/mL)
MIC [11]: 1 µM (≈ 2.46 µg/mL)
MIC (Ramulariopsis gossypii): 0.83 µM (≈ 2.05 µg/mL)
MIC (Rhizoctonia solani): 1 µM (≈ 2.46 µg/mL)
MIC (Fusarium solani): 1 µM (≈ 2.46 µg/mL)
MIC [12]: 16 µM (≈ 39.4 µg/mL)
MIC [13]: 16 µM (≈ 39.4 µg/mL)
MIC [14]: 1 µM (≈ 2.46 µg/mL)
MIC [15]: 4 µM (≈ 9.86 µg/mL)
MIC [16]: 16 µM (≈ 39.4 µg/mL)
MIC [17]: 0.83 µM (≈ 2.05 µg/mL)

CC[C@H](C)[C@H](NC(=O)[C@H](CCCCN)NC(=O)[C@H](CCCCN)NC(=O)[C@H](CC(C)C)NC(=O)[C@H](CC(C)C)NC(=O)CN)C(=O)N[C@@H](CCCCN)C(=O)N[C@@H](CCCN=C(N)N)C(=O)N[C@@H](CC(C)C)C(=O)N[C@@H](CC(C)C)C(N)=O [GLLKKIKRLL]
MIC (Candida parapsilosis): 25.4 µM (≈ 30 µg/mL)
MIC [18]: 5.92 µM (≈ 6.99 µg/mL)
MIC [19]: ≥ 33.9 µM
MIC (Bacillus subtilis DELTA): ≥ 169 µM
MIC [20]: ≥ 169 µM

CC(C)[C@H](NC(=O)[C@H](CCCN=C(N)N)NC(=O)[C@H](CCCCN)NC(=O)CNC(=O)[C@@H](NC(=O)[C@H](CCCN=C(N)N)NC(=O)[C@H](Cc1c[nH]c2ccccc12)NC(=O)[C@H](Cc1c[nH]c2ccccc12)NC(=O)[C@H](CCCCN)NC(=O)[C@H](CCCCN)NC(=O)[C@H](Cc1ccccc1)NC(=O)[C@H](Cc1ccccc1)NC(=O)[C@H](CCCN=C(N)N)NC(=O)CNC(=O)[C@H](Cc1c[nH]c2ccccc12)NC(=O)CN)C(C)C)C(=O)NCC(=O)N[C@@H](CCCCN)C(=O)O [GWGRFFKKWWRVGKRVGK]
MIC [21]: 7.02 µM (≈ 16 µg/mL)
MIC [22]: 7.02 µM (≈ 16 µg/mL)
MIC [23]: 7.02 µM (≈ 16 µg/mL)

CC(C)[C@H](NC(=O)[C@H](CCCCN)NC(=O)[C@H](CCCCN)NC(=O)[C@H](Cc1c[nH]c2ccccc12)NC(=O)[C@H](CCCCN)NC(=O)[C@H](CCCCN)NC(=O)[C@H](Cc1ccccc1)NC(=O)[C@H](Cc1ccccc1)NC(=O)[C@H](CCCCN)NC(=O)[C@H](CCCCN)NC(=O)[C@H](Cc1c[nH]c2ccccc12)NC(=O)CN)C(=O)N[C@@H](Cc1c[nH]c2ccccc12)C(=O)N[C@@H](CCCCN)C(=O)O [GWKKFFKKWKKVWK]
MIC [21]: 8.31 µM (≈ 16 µg/mL)
MIC [22]: 8.31 µM (≈ 16 µg/mL)
MIC [23]: 16.6 µM (≈ 32 µg/mL)

CC[C@H](C)[C@@H]1NC(=O)CNC(=O)[C@H](CCCN=C(N)N)NC(=O)[C@H](Cc2ccc(O)cc2)NC(=O)[C@@H]2CSSC[C@H](NC1=O)C(=O)N[C@@H](Cc1ccc(O)cc1)C(=O)N[C@@H](CCCN=C(N)N)C(=O)N[C@@H](CCCN=C(N)N)C(=O)N[C@H](C(=O)N[C@@H](CCCN=C(N)N)C(=O)O)CSSC[C@H](NC(=O)[C@H](Cc1c[nH]c3ccccc13)NC(=O)[C@@H](N)CCCCN)C(=O)N[C@@H](Cc1ccccc1)C(=O)N[C@@H](CCCN=C(N)N)C(=O)N[C@@H](CCCN=C(N)N)C(=O)N2 [KWCFRRCYRGICYRRCR]
MIC [18]: > 50 µM
MIC [24]: ≥ 50 µM
MIC (Escherichia coli C600): 1.56 µM (≈ 3.62 µg/mL)

CC[C@H](C)[C@H](NC(=O)[C@H](CO)NC(=O)CNC(=O)[C@@H](NC(=O)[C@@H](N)CCCN=C(N)N)[C@@H](C)CC)C(=O)N[C@@H](CC(C)C)C(=O)NCC(=O)N[C@@H](C)C(=O)N[C@@H](CC(C)C)C(=O)N[C@@H](C)C(=O)N[C@@H](CCCCN)C(=O)NCC(=O)N[C@@H](CC(C)C)C(=O)N1CCC[C@H]1C(=O)N[C@H](C(=O)N[C@@H](CC(C)C)C(=O)N[C@@H](CCCCN)C(=O)N[C@@H](CO)C(=O)N[C@@H](Cc1c[nH]c2ccccc12)C(=O)N[C@H](C(=O)N[C@@H](CCCCN)C(=O)N[C@@H](CC(N)=O)C(=O)N[C@@H](CCCN=C(N)N)C(N)=O)[C@@H](C)CC)[C@@H](C)O [RIGSILGALAKGLPTLKSWIKNR]
MIC [1]: ≥ 100 µM
MIC [2]: 25 µM (≈ 62.3 µg/mL)
MIC [3]: 6.25 µM (≈ 15.6 µg/mL)
MIC [4]: 25 µM (≈ 62.3 µg/mL)
MIC [5]: 12.5 µM (≈ 31.2 µg/mL)
MIC [6]: 6.25 µM (≈ 15.6 µg/mL)

CC[C@H](C)[C@H](NC(=O)[C@H](Cc1ccccc1)NC(=O)[C@H](CCCCN)NC(=O)[C@H](CC(C)C)NC(=O)[C@H](CC(C)C)NC(=O)[C@@H](N)CCCN=C(N)N)C(=O)N[C@@H](CCCCN)C(=O)N[C@@H](CCCCN)C(=O)N[C@@H](CC(C)C)C(=O)N[C@@H](CC(C)C)C(N)=O [RLLKFIKKLL]
MIC (Candida parapsilosis): 23.6 µM (≈ 30 µg/mL)
MIC [19]: 7.86 µM (≈ 9.99 µg/mL)
MIC (Bacillus subtilis DELTA): 31.5 µM (≈ 40 µg/mL)
MIC [20]: ≥ 315 µM
